Test results taken from PubChem BioAssay (NCI).
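Step 1: Grow cells in 96-well plates. Step 2: Expose to compound for 48 hours at 5 concentrations. Step 3: Interpolate endpoints linearly; if unreached, use highest concentration. TGI is the concentration that stops growth completely.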

Columns and labels:
Assay in all cases: NCI tumour cell line growth inhibition, 48 h
HOP-62 NSCLC = tested on: HOP-62 NSCLC
EKVX NSCLC = tested on: EKVX NSCLC
NCI-H522 lung = tested on: NCI-H522 lung
UACC-62 melanoma = tested on: UACC-62 melanoma
NCI-H23 lung = tested on: NCI-H23 lung
MDA-MB-231 breast = tested on: MDA-MB-231 breast
UACC-257 melanoma = tested on: UACC-257 melanoma
SN12C renal = tested on: SN12C renal
LOX IMVI melanoma = tested on: LOX IMVI melanoma
MDA-MB-435 = tested on: MDA-MB-435
K-562 leukemia = tested on: K-562 leukemia
HCC-2998 colon = tested on: HCC-2998 colon
SK-MEL-2 melanoma = tested on: SK-MEL-2 melanoma
TK-10 renal = tested on: TK-10 renal
MOLT-4 leukemia = tested on: MOLT-4 leukemia
HOP-92 NSCLC = tested on: HOP-92 NSCLC
SK-OV-3 ovarian = tested on: SK-OV-3 ovarian
SK-MEL-28 melanoma = tested on: SK-MEL-28 melanoma
SNB-75 CNS = tested on: SNB-75 CNS
HT29 colon = tested on: HT29 colon
UO-31 renal = tested on: UO-31 renal
HS 578T breast = tested on: HS 578T breast
OVCAR-3 ovarian = tested on: OVCAR-3 ovarian
SF-268 CNS = tested on: SF-268 CNS
M14 melanoma = tested on: M14 melanoma
ACHN renal = tested on: ACHN renal
PC-3 prostate = tested on: PC-3 prostate
A498 renal = tested on: A498 renal
CAKI-1 renal = tested on: CAKI-1 renal
MDA-N = tested on: MDA-N
SW-620 colon = tested on: SW-620 colon
OVCAR-8 ovarian = tested on: OVCAR-8 ovarian
SK-MEL-5 melanoma = tested on: SK-MEL-5 melanoma
SR leukemia = tested on: SR leukemia
786-0 renal = tested on: 786-0 renal
SF-539 CNS = tested on: SF-539 CNS
U251 CNS = tested on: U251 CNS
BT-549 breast = tested on: BT-549 breast
KM12 colon = tested on: KM12 colon
MALME-3M melanoma = tested on: MALME-3M melanoma
NCI-H460 lung = tested on: NCI-H460 lung
HCT-15 colon = tested on: HCT-15 colon
OVCAR-5 ovarian = tested on: OVCAR-5 ovarian
RXF 393 renal = tested on: RXF 393 renal
HCT-116 colon = tested on: HCT-116 colon
COLO 205 colon = tested on: COLO 205 colon
OVCAR-4 ovarian = tested on: OVCAR-4 ovarian
DU-145 prostate = tested on: DU-145 prostate
A549 NSCLC = tested on: A549 NSCLC
NCI-H226 lung = tested on: NCI-H226 lung
MCF7 breast = tested on: MCF7 breast
T-47D breast = tested on: T-47D breast
CCRF-CEM leukemia = tested on: CCRF-CEM leukemia
NCI/ADR-RES ovarian = tested on: NCI/ADR-RES ovarian
RPMI-8226 leukemia = tested on: RPMI-8226 leukemia
HL-60(TB) leukemia = tested on: HL-60(TB) leukemia
IGROV1 ovarian = tested on: IGROV1 ovarian
SF-295 CNS = tested on: SF-295 CNS
SNB-19 CNS = tested on: SNB-19 CNS

SMILES: O=C(O)c1ccccc1C1CCCc2c1[nH]c1ccccc21 (configuration not stated)
- TGI (HOP-62 NSCLC): > 100 µM
- TGI (EKVX NSCLC): > 100 µM
- TGI (NCI-H522 lung): > 100 µM
- TGI (UACC-62 melanoma): > 100 µM
- TGI (NCI-H23 lung): > 100 µM
- TGI (MDA-MB-231 breast): > 100 µM
- TGI (UACC-257 melanoma): > 100 µM
- TGI (SN12C renal): > 100 µM
- TGI (LOX IMVI melanoma): > 100 µM
- TGI (MDA-MB-435): > 100 µM
- TGI (K-562 leukemia): > 100 µM
- TGI (HCC-2998 colon): > 100 µM
- TGI (SK-MEL-2 melanoma): > 100 µM
- TGI (TK-10 renal): > 100 µM
- TGI (MOLT-4 leukemia): > 100 µM
- TGI (HOP-92 NSCLC): > 100 µM
- TGI (SK-OV-3 ovarian): > 100 µM
- TGI (SK-MEL-28 melanoma): > 100 µM
- TGI (SNB-75 CNS): 59.3 µM
- TGI (HT29 colon): > 100 µM
- TGI (UO-31 renal): > 100 µM
- TGI (HS 578T breast): > 100 µM
- TGI (OVCAR-3 ovarian): > 100 µM
- TGI (SF-268 CNS): > 100 µM
- TGI (M14 melanoma): > 100 µM
- TGI (ACHN renal): > 100 µM
- TGI (PC-3 prostate): > 100 µM
- TGI (A498 renal): 85.9 µM
- TGI (CAKI-1 renal): > 100 µM
- TGI (MDA-N): > 100 µM
- TGI (SW-620 colon): > 100 µM
- TGI (OVCAR-8 ovarian): > 100 µM
- TGI (SK-MEL-5 melanoma): > 100 µM
- TGI (SR leukemia): > 100 µM
- TGI (786-0 renal): > 100 µM
- TGI (SF-539 CNS): > 100 µM
- TGI (U251 CNS): > 100 µM
- TGI (BT-549 breast): > 100 µM
- TGI (KM12 colon): > 100 µM
- TGI (MALME-3M melanoma): > 100 µM
- TGI (NCI-H460 lung): > 100 µM
- TGI (HCT-15 colon): > 100 µM
- TGI (OVCAR-5 ovarian): > 100 µM
- TGI (RXF 393 renal): > 100 µM
- TGI (HCT-116 colon): > 100 µM
- TGI (COLO 205 colon): > 100 µM
- TGI (OVCAR-4 ovarian): > 100 µM
- TGI (DU-145 prostate): > 100 µM
- TGI (A549 NSCLC): > 100 µM
- TGI (NCI-H226 lung): > 100 µM
- TGI (MCF7 breast): > 100 µM
- TGI (T-47D breast): 71 µM
- TGI (CCRF-CEM leukemia): 76.2 µM
- TGI (NCI/ADR-RES ovarian): > 100 µM
- TGI (RPMI-8226 leukemia): > 100 µM
- TGI (HL-60(TB) leukemia): > 100 µM
- TGI (IGROV1 ovarian): > 100 µM
- TGI (SF-295 CNS): > 100 µM
- TGI (SNB-19 CNS): > 100 µM

SMILES: O=C(CC(=O)Nc1ccccc1Cl)NNC(c1cc(N=Nc2ccc(Br)cc2)ccc1O)P(O)O (configuration not stated)
- TGI (HOP-62 NSCLC): > 10 µM
- TGI (EKVX NSCLC): > 10 µM
- TGI (NCI-H522 lung): > 10 µM
- TGI (UACC-62 melanoma): 6.12 µM
- TGI (NCI-H23 lung): > 10 µM
- TGI (MDA-MB-231 breast): > 10 µM
- TGI (UACC-257 melanoma): > 10 µM
- TGI (SN12C renal): > 10 µM
- TGI (LOX IMVI melanoma): 9.51 µM
- TGI (MDA-MB-435): > 10 µM
- TGI (K-562 leukemia): 6.78 µM
- TGI (HCC-2998 colon): > 10 µM
- TGI (SK-MEL-2 melanoma): > 10 µM
- TGI (TK-10 renal): > 10 µM
- TGI (MOLT-4 leukemia): > 10 µM
- TGI (HOP-92 NSCLC): > 10 µM
- TGI (SK-OV-3 ovarian): > 10 µM
- TGI (SK-MEL-28 melanoma): > 10 µM
- TGI (SNB-75 CNS): 9.72 µM
- TGI (HT29 colon): > 10 µM
- TGI (UO-31 renal): > 10 µM
- TGI (HS 578T breast): > 10 µM
- TGI (OVCAR-3 ovarian): > 10 µM
- TGI (SF-268 CNS): > 10 µM
- TGI (M14 melanoma): 2.72 µM
- TGI (ACHN renal): > 10 µM
- TGI (PC-3 prostate): > 10 µM
- TGI (A498 renal): 7.87 µM
- TGI (CAKI-1 renal): 6.71 µM
- TGI (MDA-N): > 10 µM
- TGI (SW-620 colon): > 10 µM
- TGI (OVCAR-8 ovarian): 3.57 µM
- TGI (SK-MEL-5 melanoma): 4.96 µM
- TGI (SR leukemia): > 10 µM
- TGI (786-0 renal): > 10 µM
- TGI (SF-539 CNS): 5.89 µM
- TGI (U251 CNS): > 10 µM
- TGI (BT-549 breast): > 10 µM
- TGI (KM12 colon): > 10 µM
- TGI (MALME-3M melanoma): > 10 µM
- TGI (NCI-H460 lung): > 10 µM
- TGI (HCT-15 colon): > 10 µM
- TGI (OVCAR-5 ovarian): > 10 µM
- TGI (RXF 393 renal): > 10 µM
- TGI (HCT-116 colon): 0.964 µM
- TGI (COLO 205 colon): > 10 µM
- TGI (OVCAR-4 ovarian): > 10 µM
- TGI (DU-145 prostate): > 10 µM
- TGI (A549 NSCLC): > 10 µM
- TGI (NCI-H226 lung): 6 µM
- TGI (MCF7 breast): > 10 µM
- TGI (T-47D breast): > 10 µM
- TGI (CCRF-CEM leukemia): 9.58 µM
- TGI (NCI/ADR-RES ovarian): > 10 µM
- TGI (RPMI-8226 leukemia): > 10 µM
- TGI (HL-60(TB) leukemia): 1.18 µM
- TGI (IGROV1 ovarian): > 10 µM
- TGI (SF-295 CNS): > 10 µM
- TGI (SNB-19 CNS): > 10 µM

SMILES: Cc1ccc2nc(C=Nc3ccccc3Cl)cc(C)c2c1
- TGI (HOP-62 NSCLC): > 100 µM
- TGI (EKVX NSCLC): > 100 µM
- TGI (NCI-H522 lung): 47.2 µM
- TGI (UACC-62 melanoma): 30.4 µM
- TGI (NCI-H23 lung): 46.4 µM
- TGI (MDA-MB-231 breast): 35.6 µM
- TGI (UACC-257 melanoma): 30.6 µM
- TGI (SN12C renal): 28.6 µM
- TGI (LOX IMVI melanoma): 22.6 µM
- TGI (MDA-MB-435): 28.5 µM
- TGI (K-562 leukemia): > 100 µM
- TGI (HCC-2998 colon): > 100 µM
- TGI (SK-MEL-2 melanoma): > 100 µM
- TGI (TK-10 renal): 98.7 µM
- TGI (MOLT-4 leukemia): 35.1 µM
- TGI (HOP-92 NSCLC): 83 µM
- TGI (SK-OV-3 ovarian): > 100 µM
- TGI (SK-MEL-28 melanoma): 42 µM
- TGI (SNB-75 CNS): 56.2 µM
- TGI (HT29 colon): 36.8 µM
- TGI (UO-31 renal): 35.5 µM
- TGI (HS 578T breast): 81.2 µM
- TGI (OVCAR-3 ovarian): 35.4 µM
- TGI (SF-268 CNS): 40 µM
- TGI (M14 melanoma): 35.1 µM
- TGI (ACHN renal): > 100 µM
- TGI (PC-3 prostate): > 100 µM
- TGI (A498 renal): > 100 µM
- TGI (CAKI-1 renal): > 100 µM
- TGI (MDA-N): 23.8 µM
- TGI (SW-620 colon): 28.5 µM
- TGI (OVCAR-8 ovarian): 29.9 µM
- TGI (SK-MEL-5 melanoma): 29.5 µM
- TGI (SR leukemia): 26.6 µM
- TGI (786-0 renal): 33.2 µM
- TGI (SF-539 CNS): 33.7 µM
- TGI (U251 CNS): 37.7 µM
- TGI (BT-549 breast): 30.1 µM
- TGI (KM12 colon): 35.9 µM
- TGI (MALME-3M melanoma): 61.9 µM
- TGI (NCI-H460 lung): 38.6 µM
- TGI (HCT-15 colon): 38.1 µM
- TGI (OVCAR-5 ovarian): > 100 µM
- TGI (RXF 393 renal): 29.6 µM
- TGI (HCT-116 colon): 16.3 µM
- TGI (COLO 205 colon): > 100 µM
- TGI (OVCAR-4 ovarian): 92.9 µM
- TGI (DU-145 prostate): > 100 µM
- TGI (A549 NSCLC): > 100 µM
- TGI (NCI-H226 lung): 48.8 µM
- TGI (MCF7 breast): 46.8 µM
- TGI (T-47D breast): 47.4 µM
- TGI (CCRF-CEM leukemia): 52.8 µM
- TGI (NCI/ADR-RES ovarian): 40.2 µM
- TGI (RPMI-8226 leukemia): > 100 µM
- TGI (HL-60(TB) leukemia): 18.4 µM
- TGI (IGROV1 ovarian): 36.7 µM
- TGI (SF-295 CNS): 47.2 µM
- TGI (SNB-19 CNS): > 100 µM
